The term IC50 denotes the point on the concentration scale where inhibition reaches its midpoint. By CC50 is commonly meant the concentration at which the toxic effect on the cells reaches its halfway point.

16 molecules from ChEMBL document CHEMBL4732195, “Promising hit compounds against resistant trichomoniasis: Synthesis and antiparasitic activity of 3-(ω-aminoalkoxy)-1-benzyl-5-nitroindazoles” (Bioorg Med Chem Lett, 2021) can be followed below.

SMILES strings stand for the structures.

Series [1] deals with Trichomonas vaginalis. The experiment in a line: Antimicrobial activity against Trichomonas vaginalis IR78 trophozoites assessed as reduction in parasitic growth incubated for 24 hrs by resazurin dye based fluorescence assay. Conditions: IR78, 24 h. It counts as functional, organism-based.
Series [2] in a line: Cytotoxicity against African green monkey Vero cells. It counts as cell-based. The conditions noted are these: chlorocebus sabaeus.
Series [3] deals with Trichomonas vaginalis. The experiment in a line: Antimicrobial activity against Trichomonas vaginalis JH31A#4 trophozoites assessed as reduction in parasitic growth incubated for 24 hrs by resazurin dye based fluorescence assay. It counts as functional, organism-based. The conditions noted are these: JH31A#4, 24 h. Background: Resazurin is reduced to fluorescent resorufin, in cell work by metabolically active cells.

A short description of series [4]: Selectivity index, ratio of CC50 for African green monkey Vero cells to IC50 for Trichomonas vaginalis IR78 trophozoites. Format: toxicity. Conditions: read-out: Ratio CC50/IC50.
A short description of series [5]: Selectivity index, ratio of CC50 for African green monkey Vero cells to IC50 for Trichomonas vaginalis JH31A#4 trophozoites. Format: toxicity. The conditions noted are these: read-out: Ratio CC50/IC50.

On to `CNCCOc1nn(Cc2ccccc2)c2ccc([N+](=O)[O-])cc12`, for which the IC50 in the series on Trichomonas vaginalis [1] came to 74.7 µM; in the series on Trichomonas vaginalis [3] it was 16.3 µM. Also, it took 171 µM to reach half-maximal cytotoxicity in series [2] (CC50). In addition, the selectivity ratio turned out to be 2.3 in series [4] and 10.5 in series [5].
Regarding `O=[N+]([O-])c1ccc2c(c1)c(OCCCCCBr)nn2Cc1ccccc1`, the concentration for half-maximal inhibition (IC50) in the series with Trichomonas vaginalis [3] was over 300 µM.
Turning to `O=[N+]([O-])c1ccc2c(c1)c(OCCBr)nn2Cc1ccccc1`, the half-inhibitory concentration (IC50) in the series with Trichomonas vaginalis [3] was over 300 µM.
In the case of `NCCCOc1nn(Cc2ccccc2)c2ccc([N+](=O)[O-])cc12`, the IC50 stood at 1.3 µM in the series with Trichomonas vaginalis [1] and 19.2 µM with Trichomonas vaginalis [3]. Also, the CC50 in series [2] stood at 46.3 µM. The selectivity ratio worked out at 35.6 in series [4] and 2.4 in series [5].
With `O=[N+]([O-])c1ccc2c(c1)c(OCCN1CCCCC1)nn2Cc1ccccc1`, the IC50 in the series on Trichomonas vaginalis [3] was 265 µM.
The same measure, in the same setting: next, `O=C1c2ccccc2C(=O)N1CCOc1nn(Cc2ccccc2)c2ccc([N+](=O)[O-])cc12`: 282 µM.
`CN(C)CCOc1nn(Cc2ccccc2)c2ccc([N+](=O)[O-])cc12`: the 50% inhibitory concentration (IC50) in the series with Trichomonas vaginalis [3] was 207 µM.
Regarding `O=[N+]([O-])c1ccc2c(c1)c(OCCCN1CCCCC1)nn2Cc1ccccc1`, the half-inhibitory concentration (IC50) in the series on Trichomonas vaginalis [3] is 104 µM.
`Cc1ncc([N+](=O)[O-])n1CCO` [METRONIDAZOLE]: the IC50 in the series with Trichomonas vaginalis [1] is 3 µM; with Trichomonas vaginalis [3], 1.7 µM. In addition, the half-maximal cytotoxic concentration (CC50) in series [2] is over 300 µM. The figures for the selectivity ratio in series [4] and in series [5] were over 100 and over 176, respectively.
Regarding `CN(C)CCCOc1nn(Cc2ccccc2)c2ccc([N+](=O)[O-])cc12`, in the series with Trichomonas vaginalis [3], the 50% inhibitory concentration (IC50) came out at 63.7 µM.
For the molecule `O=[N+]([O-])c1ccc2c(c1)c(OCCCCCN1CCCCC1)nn2Cc1ccccc1`, in the series on Trichomonas vaginalis [3], the IC50 worked out at 69 µM.
Consider `NCCOc1nn(Cc2ccccc2)c2ccc([N+](=O)[O-])cc12`, for which the values for the half-maximal inhibitory concentration (IC50) with Trichomonas vaginalis [1] and with Trichomonas vaginalis [3] were 14.3 µM and 10.5 µM, respectively. The molecule further displayed a CC50 in series [2] of over 300 µM. Further, the selectivity ratio in series [4] is over 21; in series [5], over 28.6.
For the molecule `NCCCCCOc1nn(Cc2ccccc2)c2ccc([N+](=O)[O-])cc12`, the values for the IC50 in the series on Trichomonas vaginalis [1] and in the series on Trichomonas vaginalis [3] were 59.1 µM and 4.2 µM, respectively. In series [2], the half-maximal cytotoxic concentration (CC50) was found to be 57.7 µM. Moreover, the values for the selectivity ratio in series [4] and in series [5] were 1 and 13.7, respectively.
Consider `O=C1c2ccccc2C(=O)N1CCCOc1nn(Cc2ccccc2)c2ccc([N+](=O)[O-])cc12`, for which the half-maximal inhibitory concentration (IC50) in the series with Trichomonas vaginalis [3] turned out to be 70.3 µM.
For `CN(C)CCCCCOc1nn(Cc2ccccc2)c2ccc([N+](=O)[O-])cc12`, the IC50 in the series with Trichomonas vaginalis [1] was determined as 55.9 µM; in the series on Trichomonas vaginalis [3], 6.5 µM. Besides, the 50% cytotoxic concentration (CC50) in series [2] came to 52.3 µM. Also, the selectivity ratio in series [4] was determined as 0.94; in series [5] it was 8.
Regarding `CNCCCCCOc1nn(Cc2ccccc2)c2ccc([N+](=O)[O-])cc12`, the IC50 in the series with Trichomonas vaginalis [1] is 0.5 µM; in the series on Trichomonas vaginalis [3], 2.5 µM. In addition, the CC50 in series [2] worked out at 24 µM. Besides, the figures for the selectivity ratio in series [4] and in series [5] were 48 and 9.6, respectively.
